Key:
Human recombinant MMP-1 = molecular target: T1, Human recombinant MMP-1 (Homo sapiens, UniProt P03956); test: In vitro MMP inhibition, Ki determination (fluorogenic substrate II); type: biochemical; conditions: value in parentheses
T1 construct: made in house; host or cells: MMP-1-transfected HT-1080 cells (spent media)
T1 sequence (P03956 100-469): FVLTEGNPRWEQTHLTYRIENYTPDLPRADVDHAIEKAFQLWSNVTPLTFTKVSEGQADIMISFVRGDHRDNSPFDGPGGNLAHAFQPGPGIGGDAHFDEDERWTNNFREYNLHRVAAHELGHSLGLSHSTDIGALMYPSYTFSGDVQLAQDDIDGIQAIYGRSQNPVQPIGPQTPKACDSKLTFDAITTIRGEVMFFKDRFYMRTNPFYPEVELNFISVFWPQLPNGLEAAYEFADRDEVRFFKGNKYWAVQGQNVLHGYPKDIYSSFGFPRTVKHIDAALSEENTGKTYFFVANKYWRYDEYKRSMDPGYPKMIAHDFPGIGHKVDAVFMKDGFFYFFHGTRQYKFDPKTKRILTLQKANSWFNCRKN
Method: Several hydroxamates and salts thereof were analyzed in in vitro assays to determine their ability to inhibit the MMP cleavage of peptide substrates. Inhibition (Ki) and IC50 constants were calculated from the assayed hydroxamate-MMP interactions.
Human recombinant MMP-1, MMP-2, MMP-9, MMP-13, and MMP-14 were used in this assay. All enzymes were prepared in Assignee's laboratories following usual laboratory procedures. Protocols for the preparation and use of these enzymes are available in the scientific literature. See, e.g., Enzyme Nomenclature (Academic Press, San Diego, Calif., 1992) (and the citations therein). See also, Frije et al., J. Biol. Chem., 26(24), 16766-73 (1994).
The MMP-1 proenzyme was purified from the spent media of MMP-1-transfected HT-1080 cells provided by Dr. Harold Welgus of Washington University (St. Louis, Mo.). The protein was purified on a zinc chelating column.
All MMPs were activated using 4-aminophenylmercuric acetate (“APMA”, Sigma Chemical, St. Louis, Mo.) or trypsin. MMP-9 also was activated using human recombinant MMP-3 (purified in Assignee's laboratory following standard cloning and purification techniques).
Two fluorogenic, methoxycoumarin-containing polypeptide substrates were used in the MMP inhibition assays:
MCA-ArgProLeuGlyLeuDpaAlaArgGluArgNH2 (II)
Here, “Dpa” is 3-(2,4-dinitrophenyl)-L-2,3-diaminopropionyl group, and “MCA” is 7-methoxycoumarin-4-yl acetyl. Substrate (I) was purchased from Baychem (Redwood City, Calif.), and substrate II was prepared Assignee's laboratory. Substrate I was used in the IC50 determination assays, while substrate II was used in the Ki determination assays. In the absence of MMP inhibitory activity, either substrate is cleaved at the Gly-Leu peptide bond. This cleavage separates the highly fluorogenic peptide from the 2,4-dinitrophenyl quencher, thus resulting in increase of fluorescent intensity.
The stock solutions of the assayed hydroxamates (or salts thereof) were prepared in 1% dimethyl sulfoxide (DMSO). These stock solutions were diluted in Buffer A (100 mM Tris-HCl, 100 mM NaCl, 10 mM CaCl2, 0.05% polyoxyethylene 23 lauryl ether, pH 7.5) to obtain solutions with different hydroxamate concentrations, i.e., assay solutions with different concentrations of the assayed MMP inhibitory compound. The experiment controls contained the same amount of Buffer A/DMSO as the assayed sample, but contained no hydroxamate (or salt thereof).
The assays from which the Ki determinations were made were performed as follows. The assayed hydroxamate samples were incubated in separate wells of untreated white polystyrene plates (Nunc Nalgene International, Rochester, N.Y.), and analyzed on a Tecan SpectraFlour Plus plate reader. The excitation wavelength was 330 nm, and the emission wavelength—420 nm. All samples (assayed hydroxamates and controls) were incubated in separate plate wells at room temperature for 1 hr in the presence of 4 μM of MMP substrate (II). In the absence of MMP inhibitory activity, substrate II was cleaved at the Gly-Leu bond resulting in an increase of relative fluorescence. Inhibition was observed as a reduced rate of this increase in relative fluorescence. The various hydroxamates were analyzed using a single low enzyme concentration with a single substrate concentration fixed at or below the Km. This protocol is a modification of method by Knight et al., FEBS Lett., 296(3), 263-266 (1992). Apparent inhibitory constants were determined by non-linear regression of reaction velocity as a function of inhibitor and enzyme concentration using Morrison's equation, as described by Kuzmic, Anal. Biochem. 286, 45-50 (2000). Modifications were made in the non-linear regression method to allow a common control reaction rate and effective enzyme concentration to be shared between all dose-response relationships on a given assay plate. […]

Human recombinant MMP-14 = molecular target: T2, Human recombinant MMP-14 (Homo sapiens, UniProt P50281); test: In vitro MMP inhibition, IC50 determination (fluorogenic substrate I); type: biochemical; conditions: value outside parentheses
T2 construct: The catalytic domain enzyme was expressed in E. coli inclusion bodies, solubilized in urea; made in house
Summary of the method: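 IC50 came from reduced fluorescence (ex 328 nm, em 415 nm) as inhibitor concentration rose, with 4 μM substrate I cleaved at Gly-Leu. Room-temperature incubation in pH 7.5 Tris buffer with 10 mM CaCl2; the E. coli-expressed, refolded MMP-14 catalytic domain was activated with trypsin or APMA.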

Ki (Human recombinant MMP-1): > 10 µM
IC50 (Human recombinant MMP-14): > 10 µM
SMILES: O=C(NO)C1(S(=O)(=O)c2ccc(OCCCc3cccc(-c4ccoc4)c3)cc2)CCOCC1 [Example 637]

Source: patent publication US20040024024A1, “Aromatic sulfone hydroxamates and their use as protease inhibitors” (priority 2001, published 2004)
